In US20030225152A1, “3-(Arylamino)methylene-1, 3-dihydro-2h-indol-2-ones as kinase inhibitors” (priority 2001, published 2003):

Test system: VEGF induced increases in intracellular calcium levels in HUVEC (human umbilical vein endothelial cells)
Assay: VEGF Stimulated Ca++ Signal in vitro (FLIPR)
Format: cell-based
Details: VEGF 5 ng/mL; for IC50: 0.01 to 10.0 μM
Experimental: VEGF Stimulated Ca^++ Signal in vitro
Automated FLIPR (Fluorometric Imaging Plate Reader) technology was used to screen for inhibitors of VEGF induced increases in intracellular calcium levels in fluorescent dye loaded endothelial cells. HUVEC (human umbilical vein endothelial cells) (Clonetics) were seeded in 96-well fibronectin coated black-walled plates overnight at 37° C./5%CO2. Cells were loaded with calcium indicator Fluo-4 for 45 minutes at 37° C. Cells were washed 4 times (Original Cell Wash, Labsystems) to remove extracellular dye. Test compounds were reconstituted in 100% DMSO and added to the cells to give a final DMSO concentration of 0.1%. For screening, cells were pre-incubated with test agents for 30 minutes, at a single concentration (10 μM) or at concentrations ranging from 0.01 to 10.0 μM followed by VEGF stimulation (5 ng/mL). Changes in fluorescence at 516 nm were measured simultaneously in all 96 wells using a cooled CCD camera. Data were generated by determining max-min fluorescence levels for unstimulated, stimulated, and drug treated samples. IC50 values for test compounds were calculated from % inhibition of VEGF stimulated responses in the absence of inhibitor.

Structure (SMILES)	inhibition at 10 µM (Homo sapiens) [%]	other results
O=C1Nc2ccc(Cl)cc2C1=CNc1ccc(OC(F)F)cc1 [Example 64, 3-[(4-Difluoromethoxyphenylamino)-methylene]-5-chloro-1,3-dihydro-indol-2-one]	37	–
O=C1Nc2ccc(Cl)cc2C1=CNc1ccc(OC(F)(F)F)cc1 [Example 66, 3-[(4-Trifluoromethoxyphenylamino)-methylene]-5-chloro-1,3-dihydro-indol-2-one]	18.5	–
Cc1cc(NC=C2C(=O)Nc3ccc(Cl)cc32)ccc1O [Example 67, 3-[(3-Methyl-4-hydroxyphenylamino)-methylene]-5-chloro-1,3-dihydro-indol-2-one]	19	–
O=C1Nc2ccc(Cl)cc2C1=CNc1ccc2c(c1)OCO2 [Example 68, 3-[(3,4-Metylenedioxyphenylamino)-methylene]-5-chloro-1,3-dihydro-indol-2-one]	–	VEGF Stimulated Ca^++ signal assay % inhibition @ 10 μM: −2.50%
Cc1ccc(NC=C2C(=O)Nc3ccc(Cl)cc32)cc1C [Example 69, 3-[(3,4-Dimethylphenylamino)-methylene]-5-chloro-1,3-dihydro-indol-2-one]	-10.7	–
CC(C)c1ccc(NC=C2C(=O)Nc3ccc(Cl)cc32)cc1 [Example 70, 3-[(4-i-Propylphenylamino)-methylene]-5-chloro-1,3-dihydro-indol-2-one]	25	–
Cc1ccc(NC=C2C(=O)Nc3ccc(Cl)cc32)cc1O [Example 71, 3-[(3-Hydroxy-4-methylphenylamino)-methylene]-5-chloro-1,3-dihydro-indol-2-one]	38.5	–
O=C1Nc2ccc(Cl)cc2C1=CNc1ccccc1 [Example 74, 3-[(Phenylamino)-methylene]-5-chloro-1,3-dihydro-indol-2-one]	44	–
COc1cc(NC=C2C(=O)Nc3ccc(Cl)cc32)cc(OC)c1 [Example 75, 3-[(3,5-Dimethoxyphenylamino)-methylene]-5-chloro-1,3-dihydro-indol-2-one]	-18	–
O=C1Nc2ccc(Cl)cc2C1=CNc1cccc(O)c1 [Example 76, 3-[(3-Hydroxyphenylamino)-methylene]-5-chloro-1,3-dihydro-indol-2-one]	55.5	–
O=C1Nc2ccc(Cl)cc2C1=CNc1ccc(O)cc1 [Example 77, 3-[(4-Hydroxyphenylamino)-methylene]-5-chloro-1,3-dihydro-indol-2-one]	35	–
Cc1cc(C)cc(NC=C2C(=O)Nc3ccc(Cl)cc32)c1 [Example 78, 3-[(3,5-Dimethylphenylamino)-methylene]-5-chloro-1,3-dihydro-indol-2-one]	8	–
Cc1ccc(NC=C2C(=O)Nc3ccc(Cl)cc32)cc1 [Example 79, 3-[(4-Methylphenylamino)-methylene]-5-chloro-1,3-dihydro-indol-2-one]	-4	–
O=C1Nc2ccccc2C1=CNc1ccc2c(c1)OCO2 [Example 80, 3-[(3,4-Methylenedioxyphenylamino)-methylene]-1,3-dihydro-indol-2-one]	3.5	–
O=C1Nc2ccccc2C1=CNc1ccc(C(=O)O)cc1 [Example 86, 4-[(2-Oxo-1,2-dihydro-indol-3-ylidenemethyl)-amino]-benzoic acid]	48.5	–
COC(=O)c1ccc(NC=C2C(=O)Nc3ccccc32)cc1OC [Example 89, 2-Methoxy-4-[(2-oxo-1,2-dihydro-indol-3-ylidenemethyl)-amino]-benzoic acid methyl ester]	39.5	–
Cc1ccc(NC=C2C(=O)Nc3cccc(C)c32)cc1C [Example 95, 3-[(3,4-Dimethyl-phenylamino)-methylene]-4-methyl-1,3-dihydro-indol-2-one]	14	–
Cc1cccc2c1C(=CNc1ccc(C(C)(C)C)cc1)C(=O)N2 [Example 98, 3-[(4-tert-Butyl-phenylamino)-methylene]-4-methyl-1,3-dihydro-indol-2-one]	47.5	–
CC(C)(C)c1ccc(NC=C2C(=O)Nc3ccc(Cl)cc32)cc1 [Example 100, 5-Chloro-3-[(4-t-butyl-phenylamino)-methylene]-1,3-dihydro-indol-2-one]	6	–
COc1cc(NC=C2C(=O)Nc3ccc(Cl)cc32)c(OC)cc1Cl [Example 104, 5-Chloro-3-[(4-chloro-2,5-dimethoxy-phenylamino)-methylene]-1,3-dihydro-indol-2-one]	-14.5	–

Structure (SMILES)	inhibition at 10 µM (Homo sapiens) [%]	other results
COc1ccc(NC=C2C(=O)Nc3ccc(Cl)cc32)cc1F [Example 105, 5-Chloro-3-[(3-flouro-4-methoxyphenylamino)-methylene]-1,3-dihydro-indol-2-one]	–	VEGF Stimulated Ca^++ signal assay % inhibition @ 10 μM: 17.50%
CCOc1ccc(NC=C2C(=O)Nc3ccc(Cl)cc32)cc1 [Example 107, 5-Chloro-3-[(4-ethoxyphenylamino)-methylene]-1,3-dihydro-indol-2-one]	41.5	–
O=C1Nc2ccc(Cl)cc2C1=CNc1ccc(O)c(C(=O)O)c1 [Example 108, 5-(5-Chloro-2-oxo-1,2-dihydro-indol-3-ylidenemethylamino)-2-hydroxybenzoic acid]	-14.5	–
Cc1cc(NC=C2C(=O)Nc3ccc(Cl)cc32)ccc1C(C)C [Example 112, 5-Chloro-3-[(4-i-propyl-3-methylphenylamino)-methylene]-1,3-dihydro-indol-2-one]	10.5	–
Cc1cccc2c1C(=CNc1ccc(O)c(C(=O)O)c1)C(=O)N2 [Example 118, 2-Hydroxy-5-[(4-methyl-2-oxo-1,2-dihydro-indol-3-ylidenemethyl)-amino]-benzoic acid]	-27	–
Cc1cccc2c1C(=CNc1ccc(OC(F)(F)F)cc1)C(=O)N2 [Example 120, 4-Methyl-3-[(4-trifluoromethoxy-phenylamino)-methylene]-1,3-dihydro-indol-2-one]	12.7	–
COc1ccc(NC=C2C(=O)Nc3cccc(C)c32)cc1C(F)(F)F [Example 121, 3-[(4-Methoxy-3-trifluoromethyl-phenylamino)-methylene]-4-methyl-1,3-dihydro-indol-2-one]	4.86	–
CCc1ccccc1NC=C1C(=O)Nc2cccc(C)c21 [Example 127, 3-[(2-Ethyl-phenylamino)-methylene]-4-methyl-1,3-dihydro-indol-2-one]	-11.8	–
Cc1cccc2c1C(=CNc1ccc(C(N)=O)cc1)C(=O)N2 [Example 129, 4-[(4-Methyl-2-oxo-1,2-dihydro-indol-3-ylidenemethyl)-amino]-benzamide]	99	IC50 (Homo sapiens): 1270 nM
Cc1cc(NC=C2C(=O)Nc3cccc(C)c32)ccc1O [Example 132, 3-[(4-Hydroxy-3-methyl-phenylamino)-methylene]-4-methyl-1,3-dihydro-indol-2-one]	73	IC50 (Homo sapiens): 7380 nM
Cc1cc(NC=C2C(=O)Nc3ccccc32)ccc1O [Example 133, 3-[(4-Hydroxy-3-methyl-phenylamino)-methylene]-1,3-dihydro-indol-2-one]	73	IC50 (Homo sapiens): 4910 nM
CCc1cccc(NC=C2C(=O)Nc3ccc(Cl)cc32)c1 [Example 148, 5-Chloro-3-[(3-ethyl-phenylamino)-methylene]-1,3-dihydro-indol-2-one]	42.2	–
N#Cc1ccc(NC=C2C(=O)Nc3ccc(Cl)cc32)cc1 [Example 152, 4-[(5-Chloro-2-oxo-1,2-dihydro-indol-3-ylidenemethyl)-amino]-benzonitrile]	18.7	–
Cc1cccc2c1C(=CNc1ccc(C(=O)O)c(O)c1)C(=O)N2 [Example 155, 2-Hydroxy-4-[(4-methyl-2-oxo-1,2-dihydro-indol-3-ylidenemethyl)-amino]-benzoic acid]	97.2	IC50 (Homo sapiens): 2600 nM
CCN(CC)Cc1cc(NC=C2C(=O)Nc3cccc(C)c32)ccc1O [Example 161, 3-[(3-Diethylaminomethyl-4-hydroxy-phenylamino)-methylene]-4-methyl-1,3-dihydro-indol-2-one]	95.2	–
O=C1Nc2ccc(F)cc2C1=CNc1ccc(N2CCCCC2)cc1 [Example 221]	–	VEGF Stimulated Ca^++ signal assay % inhibition @ 10 μM: 97.59%; IC50: 930 nM
CN1CCN(CCCNc2ccc(NC=C3C(=O)Nc4ccccc43)cc2)CC1 [Example 302, 3-({4-[3-(4-Methyl-piperazin-1-yl)-propylamino]-phenylamino}-methylene)-1,3-dihydro-indol-2-one]	–	IC50 (Homo sapiens): 710 nM
Cc1cccc2c1C(=CNc1ccc(NCCCN3CCN(C)CC3)cc1)C(=O)N2 [Example 303, 4-Methyl-3-({4-[3-(4-methyl-piperazin-1-yl)-propylamino]-phenylamino}-methylene)-1,3-dihydro-indol-2-one]	–	IC50 (Homo sapiens): 520 nM
CN1CCN(CCCNc2ccc(NC=C3C(=O)Nc4cc(F)ccc43)cc2)CC1 [Example 304, 6-Fluoro-3-({4-[3-(4-methyl-piperazin-1-yl)-propylamino]-phenylamino}-methylene)-1,3-dihydro-indol-2-one]	–	IC50 (Homo sapiens): 120 nM
O=C1Nc2ccccc2C1=CNc1ccc(CCCCN2CCOCC2)cc1 [Example 312, 3-{[4-(4-Morpholin-4-yl-butyl)-phenylamino]-methylene}-1,3-dihydro-indol-2-one]	–	IC50 (Homo sapiens): 540 nM
